What is called melting point is the temperature of the solid-liquid transition.

Tested on in one series: not given
Experiment: not given
Conditions: not given
In turn, `CC1=NNS(=O)(=O)c2cc(Cl)ccc21` [Example 1, 7-chloro-4-methylbenzo[1,2,3]thiadiazine-1,1-dioxide] returned a melting point of 187 to 189 °C.
The compound `CCC1=NNS(=O)(=O)c2cc(Cl)ccc21` [Example 2, 4-Ethyl-7-chlorobenzo[1,2,3]thiadiazine-1,1-dioxide] displayed a melting point of 196 to 198 °C.
As for `CCC1=NNS(=O)(=O)c2c1ccc(Cl)c2Cl` [Example 4, 7,8-Dichloro-4-ethylbenzo[1,2,3]thiadiazine-1,1-dioxide], the melting point was in the range of 238 to 239 °C.
Still for that read-out and setting: the result for `CC1=NNS(=O)(=O)c2c(Cl)cccc21` [Example 6, 8-chloro-4-methylbenzo[1,2,3]thiadiazine-1,1-dioxide] reads 206 to 207 °C; that for `COc1ccc2c(c1Cl)S(=O)(=O)NN=C2C` [Example 7, 8-chloro-4-methyl-7-methoxybenzo[1,2,3]thiadiazine-1,1-dioxide], 227 to 229 °C.
The same measure, in the same setting: the same measure for `COc1cccc2c1S(=O)(=O)NN=C2C` [Example 8, 4-Methyl-8-methoxybenzo[1,2,3]thiadiazine-1,1-dioxide]: 194 to 197 °C; for `COc1ccc2c(c1OC)S(=O)(=O)NN=C2C` [Example 9, 7,8-Dimethoxy-4-methylbenzo[1,2,3]thiadiazine-1,1-dioxide]: 238 to 240 °C.
Same read-out and setting: the result for `CC1=NNS(=O)(=O)c2c1cc(C)c(Cl)c2Cl` [Example 10, 7,8-Dichloro-4,6-dimethylbenzo[1,2,3]thiadiazine-1,1-dioxide] reads 224 to 226 °C.
Compound `O=S1(=O)NN=Cc2ccc(Cl)c(Cl)c21` [Example 11, 7,8-Dichlorobenzo[1,2,3]thiadiazine-1,1-dioxide] displayed a melting point of 183 to 185 °C.
For `COc1ccc2c(c1)C=NNS2(=O)=O` [Example 12, 6-Methoxybenzo[1,2,3]thiadiazine-1,1-dioxide], the melting point lay in the range of 163 to 164 °C.
`CC1=NNS(=O)(=O)c2ccccc21` [Example 13, 4-Methylbenzo[1,2,3]thiadiazine-1,1-dioxide] had a melting point of 183 to 185 °C.
On the same count and under the same terms, the result for `COc1ccc2c(c1)S(=O)(=O)NN=C2C` [Example 14, 4-Methyl-7-methoxybenzo[1,2,3]thiadiazine-1,1-dioxide] reads 174 to 176 °C; that for `O=S1(=O)NN=Cc2ccc(Cl)cc21` [Example 15, 7-chlorobenzo[1,2,3]thiadiazine-1,1-dioxide], 221 to 223 °C; that for `CCC1=NN(C)S(=O)(=O)c2c1ccc(Cl)c2Cl` [Example 18, 7,8-Dichloro-4-ethyl-2-methylbenzo[1,2,3]thiadiazine-1,1-dioxide], 119 to 120 °C.
Same read-out and setting: the same measure for `CCC1=NN(CC)S(=O)(=O)c2c1ccc(Cl)c2Cl` [Example 19, 2,4-Diethyl-7,8-dichlorobenzo[1,2,3]thiadiazine-1,1-dioxide]: 79 to 82 °C; for `CN1N=Cc2ccc(Cl)c(Cl)c2S1(=O)=O` [Example 20, 7,8-Dichloro-2-methylbenzo[1,2,3]thiadiazine-1,1-dioxide]: 120 to 121 °C; for `CN1N=Cc2ccc(Cl)cc2S1(=O)=O` [Example 21, 7-chloro-2-methylbenzo[1,2,3]thiadiazine-1,1-dioxide]: 131 to 133 °C.
Same read-out and setting: the result for `COc1ccc2c(c1)C=NN(C)S2(=O)=O` [Example 22, 2-Methyl-6-methoxybenzo[1,2,3]thiadiazine-1,1-dioxide] reads 99 to 101 °C; that for `CN1N=Cc2ccccc2S1(=O)=O` [Example 23, 2-Methylbenzo[1,2,3]thiadiazine-1,1-dioxide], 79 to 80 °C.
As for `CC1=NN(C)S(=O)(=O)c2c(Cl)c(Cl)cc(C)c21` [Example 24, 7,8-Dichloro-2,4,5-trimethylbenzo[1,2,3]thiadiazine-1,1-dioxide], the melting point was 166 to 168 °C.
Same read-out and setting: the same measure for `COc1ccc2c(c1Cl)S(=O)(=O)N(C)N=C2C` [Example 25, 8-chloro-7-methoxy-2,4-dimethylbenzo[1,2,3]thiadiazine-1,1-dioxide]: 151 to 152 °C.
On the same count and under the same terms, the result for `CC1=NN(C)S(=O)(=O)c2c1cc(C)c(Cl)c2Cl` [Example 26, 7,8-Dichloro-2,4,6-trimethylbenzo[1,2,3]thiadiazine-1,1-dioxide] reads 179 to 180 °C; that for `COc1ccc2c(c1Cl)S(=O)(=O)N(C)N=C2` [Example 28, 8-chloro-2-methyl-7-methoxybenzo[1,2,3]thiadiazine-1,1-dioxide], 173 to 175 °C.

A further series deals with male Sprague-Dawley rats. Put plainly: elevated maze test in the rat. Conditions: per os, 60-min pretreatment, 5-min measurement, time spent in the open arms and number of entries into the open arms. The series is classed as in vivo. As to the method: Pharmacological activity of the compounds of the general Formula (I) has been evaluated in elevated maze test in the rat.
The tests were carried out according to the method of S. Pellow and coworkers (J. Neurosci. Methods. 1985, 14, 149-167). During the test, a wooden-floor cross elevated by 50 cm from the floor was used. The length and the width of the arms of the cross were 100 and 15 cm, respectively. Two opposite arms of the cross are fitted at the ends and both sides with black plexyglass wall of 40 cm height (closed arms).
The central section of the cross measuring 15 by 15 cm is open. The other two opposite arms of the cross are not provided with walls (open arms).
The tests were carried out in male Sprague-Dawley rats weighing 200 to 220 g. After the 60-min pretreatment time (per os treatment), the animal was placed in the center of the maze. During the 5-min measurement time, four variables were recorded: the time spent in the open arms; the time spent in the closed arms; the number of entries into the open arms; the number of entries into the closed arms.
Animals normally avoid the open and light parts of the maze, thereby spending little time therein only. The anxiolytic effect of the compounds of the general Formula (I) is indicated by the increase in the time spent (in seconds) in the open arms and/or by the increase in the number of the entries into the open compartments of the maze. The minimum effective dose (MED) was determined for each tested compounds regarding the time spent in the open arms and the number of entries into the open arms. During the test, the known anxiolytic compound 1-methyl-5-phenyl-7-chloro-1,3-dihydro-2H-1,4-benzodiazepin-2-one (INN: diazepam) of the Formula (IV)
was used. Treatment of the animals was carried out orally with the doses 0.1, 0.3, 1.0, 3.0 for diazepam and 0.01, 0.1, 1.0 mg/kg for the compounds of the general Formula (I).
Consider `CN1C(=O)CN=C(c2ccccc2)c2cc(Cl)ccc21` [Diazepam, 1-methyl-5-phenyl-7-chloro-1,3-dihydro-2H-1,4-benzodiazepin-2-one, reference compound], for which the “MED (minimum effective dose), anxiolytic effect in elevated maze test” value is 1.00 mg/kg p.o.
As to `CC1=NNS(=O)(=O)c2c1ccc(Cl)c2Cl` [Example 3, 7,8-Dichloro-4-methylbenzo[1,2,3]tiadiazine-1,1-dioxide], the “MED (minimum effective dose), anxiolytic effect in elevated maze test” value was “≦0.01 mg/kg p.o”.
The same measure, in the same setting: the same measure for `CC1=NNS(=O)(=O)c2c(Cl)c(Cl)cc(C)c21` [Example 5, 7,8-Dichloro-4,5-dimethylbenzo[1,2,3]thiadiazine-1,1-dioxide]: “≦0.01 mg/kg p.o”; for `CN1N=Cc2ccc(Cl)c(Cl)c2S1(=O)=O` [Example 20, 7,8-Dichloro-2-methylbenzo[1,2,3]thiadiazine-1,1-dioxide]: “≦0.01 mg/kg p.o”.

The values above are taken from patent US20100168087A1, “BENZO[1,2,3]THIADIAZINE DERIVATES” (priority 2006, published 2010).
